Measurements published in US20240285808A1, “MOLECULAR PROBES FOR IN VIVO DETECTION OF ALDEHYDES” (The General Hospital Corporation, priority 2021, published 2024).
Values joined by “and” are separate entries in the source; they are usually repeats but may differ in a detail not shown here. Equal entries are not always repeated. “Also recorded” adds a separate entry of the source.

What was measured:
[1] = Reaction rates with 2-formylpyridine measured by HPLC-ICP-MS (Method A); assay type: physicochemical; conditions: Method a: 2-formylpyridine 1000 μM, probe 25 μM, pH 7.40 PBS
Method: Quantitative Measurement of Reaction Rates with Aldehydes: Method A: Reaction Rates of Compounds with 2-Formylpyridine Measured by HPLC-ICP-MS
Reactivity of aldehyde-binding probes were assessed in pH 7.40 phosphate-buffered saline under pseudo-first order conditions with 2-formylpyridine concentration of 1000 μM and probes at 25 μM. Concentrations of unreacted starting material and condensation products were determined at 12 min time intervals based on their relative integrations. The values were fit to a standard first order rate constant linear equation and the rate constant was extracted from the slope.

[2] = tested on: fibrotic lung tissue of bleomycin-injured mice; experiment: Biodistribution study for selectivity of allysine-reactive Gd probes (Gd:Eu ratio by ICP-MS); assay type: in vivo, mouse; conditions: 30 minutes after injection, 100 nmol/g, Eu-DOTA co-injected, n = 5
Method: C57Bl/6 adult male mice at 8 weeks of age (Jackson Laboratories, Barr Harbor, ME) received a single intratracheal dose of bleomycin, 1 units/kg body weight (50 μL total volume) (Fresenius Kabi, Lake Zurich, Il) as previously described in Desogere, P., et al. Optimization of a Collagen-Targeted PET Probe for Molecular Imaging of Pulmonary Fibrosis. J Nuc Med 58, 1991-1996 (2017).
Imaging and Biodistribution Study for Selectivity of Allysine-Reactive Probes In Vivo:
Bleomycin-injured mice at 14 days after injury were sedated and then injected with Compound 19, Compound 20, Gd-CHyd (Akam, E. A., et al. Improving the reactivity of hydrazine-bearing MRI probes for in vivo imaging of lung fibrogenesis. Chemical Science 11, 224-231 (2020)) formulated to contain an equal concentration of Eu-DOTA as a non-binding control probe. […] Each sample was analyzed by ICP-MS for gadolinium and europium content, and the lungs were also assessed for hydroxyproline content. […] All animals were dosed via tail vein injection at 100 nmol/g body weight from 30 mM solutions of gadolinium probes with 30 mM Eu-DOTA as determined by ICP-MS. […] Animals were euthanized 90 min post injection and their organs and tissues were harvested and counted using a gamma counter. […] The animals were euthanized 90 min post injection and their organs and tissues were counted using a gamma counter. […]

[3] = Reaction rates with butyraldehyde measured by HPLC-ICP-MS (Method B); assay type: physicochemical; conditions: Method b: butyraldehyde 100 μM, probe 25 μM, pH 7.40
Method: Method B: Reaction Rates of Compounds with Butyraldehyde Measured by HPLC-ICP-MS
The reactions were conducted in pH 7.40 phosphate-buffered with butyraldehyde concentration of 100 μM and hydrazine probes at 25 μM. Concentrations of unreacted starting material and condensation products were determined at 10 min time intervals over 2 hours based on their relative integrations. The values were fit to a standard first order rate constant linear equation and the rate constant was extracted from the slope.
Reaction with Butyraldehyde Monitored by HPLC-ICP-MS
Reactions were conducted in pH 7.4 phosphate-buffered saline with butyraldehyde concentration of 100 μM and hydrazine probes at 25 μM. Concentrations of unreacted starting material and condensation products were determined based on their relative integrations at 12 min time intervals over 2 hours.

[4] = Relaxivity measurements in PBS; assay type: physicochemical; conditions: 1.4 T, 37° C.
Method: (§1) BSA-ALD (10 mg/mL) or BSA (10 mg/mL) were treated for 24 hours at 37° C. with the corresponding Gd or Mn complex at a range of concentrations (0.01-0.2 mM), with a total volume of 300 μL maintained for all samples. After 24 hours, an aliquot of the solution (50 μL) was used for longitudinal (T1) relaxation measurements, recorded using a Bruker mq60 Minispec at 1.41 T and 37° C. Longitudinal (T1) relaxation times were measured via an inversion recovery experiment using 10 inversions of duration ranging between 0.05×T1 and 10×T1. Solutions (concentration range: 0.1 mM-1.0 mM) in PBS were run in parallel. To measure the relaxivity of BSA-bound species, sodium cyanoborohydride (10 mg) was added to the solution to irreversibly bind the probe to the protein. After a further 2h incubation at 37° C., protein-bound and protein-free solutions were separated by ultrafiltration. Then 200 μL PBS was added to the residue to dissolve the protein. Longitudinal (T1) relaxation times for the bounded species were measured using a Bruker mq60 Minispec at 1.41 T and 37° C. After the measurement, concentration of corresponding metal ion (Gd/Mn) in the residue and filter were both determined using an Agilent 8800 ICP-MS system. Relaxivity (r1) was determined from the slope of a plot of 1/T1 vs metal concentration for 5 concentrations.

[5] = biological target: bovine serum albumin (BSA) (Bos taurus, UniProt P02769); experiment: Relaxivity measurements with BSA; assay type: binding; conditions: 1.4 T, 37° C., BSA 10 mg/mL
Sequence of bovine serum albumin (BSA) (P02769 25-607): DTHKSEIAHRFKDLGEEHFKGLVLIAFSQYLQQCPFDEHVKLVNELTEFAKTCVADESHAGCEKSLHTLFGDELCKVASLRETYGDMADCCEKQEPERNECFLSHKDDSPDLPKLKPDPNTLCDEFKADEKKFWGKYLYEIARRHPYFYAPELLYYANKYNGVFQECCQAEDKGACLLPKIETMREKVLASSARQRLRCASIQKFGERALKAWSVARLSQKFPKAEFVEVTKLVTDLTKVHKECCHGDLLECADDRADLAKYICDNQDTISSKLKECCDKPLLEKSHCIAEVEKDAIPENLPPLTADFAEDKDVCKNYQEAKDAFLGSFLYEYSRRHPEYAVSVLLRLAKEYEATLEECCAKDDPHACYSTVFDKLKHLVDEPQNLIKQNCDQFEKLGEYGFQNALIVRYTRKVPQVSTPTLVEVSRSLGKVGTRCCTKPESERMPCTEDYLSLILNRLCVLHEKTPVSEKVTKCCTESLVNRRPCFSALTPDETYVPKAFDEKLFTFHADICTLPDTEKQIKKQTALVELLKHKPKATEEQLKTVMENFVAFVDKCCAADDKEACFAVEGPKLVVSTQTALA
Method: as §1

[6] = biological target: T1, BSA-ALD (oxidized bovine serum albumin containing allysine aldehyde groups) (Bos taurus, UniProt P02769); experiment: Relaxivity measurements with BSA-Ald; assay type: binding
T1 construct: made in house; host or cells: no expression host: BSA oxidised chemically with sodium ascorbate, ferric chloride and H2O2, then desalted on PD-10
T1 sequence (P02769 25-607): as above
Method: Preparation of Allysine Containing Bovine Serum Albumin, BSA-ALD:
To a solution of bovine serum albumin (BSA) (100 mg) dissolved in phosphate buffered saline (4 mL, pH 7.4, 0.25 mM), sodium ascorbate (20 mg), ferric chloride (120 μL, 10 mM) and 20 μL H2O2 (30% w) were added. The reaction was stirred at 37° C. for 24 hours, and sodium ascorbate (20 mg) was added repeatedly every 8 hours. After the reaction, protein was purified using PD-10 Sephadex G25 desalting columns (GE Healthcare), eluted with PBS. Protein concentration was assessed using the ‘BCA Protein Assay Kit’ (Thermo Scientific). Protein carbonyl concentration was determined by ‘Protein Carbonyl Content Assay Kit’ (Sigmal-Aldrich).
Alternatively, preparation of BSA^Ald and binding of Gd^3+ probe to protein was carried out according to modified procedures. To a solution of bovine serum albumin (BSA) (100 mg) dissolved in phosphate buffered saline (4 mL, pH 7.4, 0.25 mM) was added sodium ascorbate (20 mg), ferric chloride (120 μL, 10 mM) and 20 μL H2O2 (30% w). The reaction was stirred at 37° C. for 24 h, and sodium ascorbate (20 mg) was added repeatedly every 8 h. After 24 h, the protein was purified using PD-10 Sephadex G25 desalting columns (GE Healthcare), eluted with PBS. Protein concentration was assessed using the ‘Micro BCA Protein Assay Kit’ (Thermo Scientific, 23235). Protein carbonyl concentration was determined by ‘Protein Carbonyl Content Assay Kit’ (Sigma-Aldrich, MAK094-1KT). […] The protein solutions were kept at a concentration of 20 mg/mL for further use.
as §1

[7] = tested on: liver of CCl4 injured mice; assay type: in vivo, mouse; conditions: CCl4 injured mice
Method: CCl4 Liver Fibrosis Model:
Male C57BL/6 mice (Charles River Laboratories, Wilmington, MA) were treated with carbon tetrachloride for 12 weeks (0.1 ml of 20% CCl4 in olive oil the first week, 30% the second week, and 40% from weeks 3-12) by oral gavage, 2-3 times per week. Control mice were fed vehicle (olive oil) only.
A total of 53 C57BL/6 mice were included to study CCl4 induced hepatic fibrosis: • A. CCl4 for 12 weeks (n=20). Each mouse was imaged with probe 1 and then imaged again 24 hours later with probe 2. Probe 1 and Probe 2 were randomly chosen from GdDOTA, GdCHyd, Mn-12, Gd-9 and Gd-10. • B. Vehicle treated control (n=20). Each mouse was imaged with probe 1 and then imaged again 24 hours later with probe 2. Probe 1 and Probe 2 were randomly chosen from GdDOTA, Mn-12, GdCHyd, Gd-9, Gd-10. • C. CCl4 for 12 weeks (n=3, another 3 pair-wise comparison have been done in group A). Each mouse was imaged with probe 1 and then imaged again 24 hours later with probe 2. […] Each mouse was imaged with probe 1 and then imaged again 24 hours later with probe 2. Probe 1 and Probe 2 were randomly choosing from Gd-9 and Gd-10. • E. CCl4 for 12 weeks (n=3). Each mouse was imaged with Gd-9. After 24 hours, the same mouse was first injected with 1000 μmol/kg of Yb-9 and then injected with 100 μmol/kg of Gd-9 15 min after the Yb-9 injection.
Animals were anesthetized with isoflurane (1-2%) and placed in a specially designed cradle with body temperature maintained at 37° C. The inhaled isoflurane level was adjusted to maintain a respiration rate of 60±5 breaths per minute. The tail vein was cannulated for intravenous (i.v.) delivery of the contrast agent while the animal was positioned in the scanner. Imaging was performed at 4.7 T using a small bore animal scanner with a custom-built volume coil. Mice were imaged with a dose of 100 μmol/kg from 30 mM stock solution of Gd or Mn complex.
For mice liver imaging, a series of baseline images (3D T1 weighted fast low angle shot magnetic resonance imaging (FLASH)) were first acquired (repetition time/echo time=15/2 ms; flip angle, 30°; field of view, 48×30 mm^2; matrix size, […]; slice thickness, 0.25 mm; acquisition time, 3 minutes 20 seconds), then a bolus of Gd or Mn complex was administered i.v. and imaging performed for a period of 45 min p.i. with the repetition acquisition of 3D T1 weighted FLASH sequences. Following the imaging session, animals were sacrificed (75 min p.i.) and liver tissue was subjected to histopathologic analysis.
For liver imaging analysis, a region of interest (ROI) was manually traced encompassing the liver parenchyma while avoiding major blood vessels. A second ROI was placed on the dorsal muscle visible in the same image slice to quantify the signal intensity in the muscle for comparison. Seven ROIs were placed in the field of view without any tissue (air) to measure the variation in background signal. More than 20 axial slices per mouse across the entire liver were analyzed in this fashion. […] Contrast to noise ratio (CNR) was calculated by measuring the difference in signal intensity (SI) between liver and muscle and normalizing to the standard deviation of the signal in the air, eq 21. ΔCNR was calculated by subtracting CNR measured prior to probe injection (CNRPre) from CNR measured after injection (CNRPost), eq 22. […]

[8] = H2^17O transverse relaxivity vs temperature (inner-sphere water number q); assay type: physicochemical; conditions: temperature dependence of H2^17O transverse relaxivity
Excerpt: FIG. 24. […] The peak relaxivity is indicative of the number of inner-sphere water molecules (q).
(§2) To meet these requirements, the probes Mn-12, Mn-13 and Mn-14 were designed based on the stable Mn-1,4-DO2A chelate. […] This combination of stability, turn-on relaxivity, and low uptake in healthy liver indicate that Mn-12 is quite promising as a novel probe for liver fibrogenesis detection.

[9] = Transmetalation experiment with Zn^2+ monitored by relaxivity; assay type: physicochemical; conditions: 1 mM complex, 25 mM Zn^2+, 50 mM pH 6.0 MES buffer, 37° C., 1.4 T
[10] = Biodistribution of manganese in healthy mice 60 minutes post-injection; assay type: in vivo, mouse; conditions: 0.1 mmol/kg i.v.
Excerpt: as §2

SMILES	k (second order rate constant) [1] [M⁻¹ s⁻¹]	Gd:Eu ratio, Left lung [2]	Gd:Eu ratio, Right lung [2]	k (second order rate constant) [3] [M⁻¹ s⁻¹]	r1, PBS [4] [mM⁻¹ s⁻¹]	r1, +BSA [5] [mM⁻¹ s⁻¹]	turn-on in relaxivity upon binding to allysine (BSA-Ald bound vs unbound) [6]	r1, +BSA-Ald ([6]; 1.4 T, 37° C., BSA-Ald 10 mg/mL) [mM⁻¹ s⁻¹]	r1, Bound to BSA-Ald ([6]; 1.4 T, 37° C., protein-bound species after NaBH3CN and ultrafiltration) [mM⁻¹ s⁻¹]	liver enhancement ([7]; 45 min p.i.)	ΔCNR (liver to muscle) ([7]; 45 min post injection, 100 μmol/kg i.v., group mean)	inner-sphere number of water molecule (q) [8]	kinetic inertness to Mn^2+ release [9]	Mn liver levels in healthy mice [10]
NOCC(=O)NCCN(CCNC(=O)CCC1C(=O)[O][Gd]23[O]C(=O)CN4CCN(CCN1CCN(CC4)CC(=O)[O]2)CC(=O)[O]3)CCNC(=O)CON (centres unmarked) [Compound 19]	0.55	1.4 ± 0.1	1.3 ± 0.2	–	–	–	–	–	–	–	–	–	–	–
NN1CCN(C(=O)CCCN2CCN(CCCC(=O)N3CCN(N)CC3)CCN(CC(=O)[O-])CCN(CC(=O)[O-])CC2)CC1.[Mn+2] [Mn-12]	–	–	–	4.5	1.6	2.2	4 fold and ~5 fold	4.5	7.7	strong signal enhancement	1.5 ± 0.8	0.44	more inert to Mn^2+ release than Mn-1,4-DO2A; also recorded: increased kinetic stability of Mn-12 compared to unmodified Mn-1,4-DO2A	little accumulation in the healthy liver; also recorded: baseline Mn levels in liver
